According to patent US11173142B2, “Cancer treatment composition” (BOTANICAL RESOURCE HOLDINGS (PROPRIETARY) LIMITED, priority 2015, dated 2021):

Legend:
[1] = system: normal breast epithelial cells (MCF-12A); assay: XTT viability assay, normal breast epithelial cells, 24-hour treatment with isolates; assay type: cell-based; settings: 24 hour incubation, highest dose assessed, FIG. 4
Method: (§1) To calculate doses, the concentrations of the specific components for serving sizes of 15 mg, 30 mg and 60 mg per person per day for Δ7 mesembrenone, mesembrenone and non-alkaloids respectively were expressed as a fraction of total body fluid volume. In an attempt to account for digestive losses, these concentrations were halved, to reach cell-culture “equivalent” doses of 0.5 ug/ml, 1 ug/ml and 2 ug/ml respectively. Following standard laboratory practice, a range of doses around these was assessed. For clarity, only 3 concentrations per component are presented (doses of 10-fold smaller were also tested for ail components, but were not different from lowest doses presented herein and thus omitted).
(§2) Briefly, the procedure itself entailed 24-hour treatment of confluent cell culture samples of normal breast epithelial cells (MCF-12A) and breast epithelial carcinoma cells (MCF-7) with varying doses of the test products. At the end of this period, the mitochondrial viability of cells was assessed using the XTT assay method. Viability was measured and expressed relative to an appropriate control.
Results are illustrated in FIG. 4 of the accompanying drawings. Results are expressed as the percentage of viable cells after a 24 hour incubation with the test substances. […]

[2] = system: breast epithelial carcinoma cells (MCF-7); assay: XTT viability assay, breast epithelial carcinoma cells, 24-hour treatment with isolates; assay type: cell-based; settings: 24 hour incubation, FIG. 4; for effect on viability of cancer cells: 3 concentrations per component around 0.5, 1 and 2 ug/ml respectively
Method: as §1, §2
Results are illustrated in FIG. 4 of the accompanying drawings. Results are expressed as the percentage of viable cells after a 24 hour incubation with the test substances. Bars are means of repeated experiments (a minimum of 3 repeat experiments in triplicate) and error bars indicate standard deviations from the mean. Asterisk (*) indicate significant reductions in cancer cell viability.

Structure (SMILES) | effect on normal cell survival [1] | effect on viability of cancer cells [2] | anti-cancer effect compared with the other isolates ([2]; Δ7 mesembrenone dosed 50% less than mesembrenone)
COc1ccc(C23CCC(=O)C=C2N(C)CC3)cc1OC (centres unmarked) [Δ7 mesembrenone] | not affecting normal cell survival | clear dose-response effects | most potent anti-cancer effect
COc1ccc([C@@]23C=CC(=O)C[C@@H]2N(C)CC3)cc1OC [mesembrenone] | seemed to limit growth of normal cells to some extent | clear dose-response effects | 
